# Read-outs that look alike come from different tables or passages of the source. Non-standard residues stand in square brackets, D forms with d. No end group written: not given here.
# Key:
# [1] = molecular target: GHSR1a (Homo sapiens, UniProt Q92847); settings: Tocris Bioscience literature; read-out: IC50 as inhibitor of GHSR1a; cited from earlier work
# [2] = molecular target: melanocortin receptors; settings: cited from earlier work
# [3] = cited from earlier work; for crossing of the blood-brain barrier: in vivo
# [4] = system: corticosterone; assay: Plasma corticosterone by ELISA in stressed rats given DLys3; type: in vivo, rat; settings: stressed animals, tail bleeds in final 30 m of final stress session
# Procedure: Rats received either daily handling (NS) or immobilization stress (STR). Each day, a systemic injection of either Dlys3-GHRP-6 (Dlys3), an antagonist of GHSR-1a, or saline (VEH) was administered within 30 m of handling or stress initiation. (a) Animals received auditory fear conditioning 24 h after the last stress or handling session. […] (c) In a subset of animals in the STR group, tail bleeds were performed during the final 30 m of the final stress session and plasma corticosterone levels were measured using ELISA. All data are mean±s.e.m. * p<0.05, ˜p<0.10 in planned comparisons.
# (§1) Hormone Assays. Corticosterone, acylated ghrelin, growth hormone and CRF levels were determined using commercial ELISA kits. For corticosterone, non-acidified plasma was diluted 1:25 in assay buffer 15 (Enzo Life Sciences; Farmingdale, N.Y.). For acylated ghrelin, the acidified sample was used for the active ghrelin ELISA (Millipore; Billerica, Mass.) and processed according to the manufacturer's protocol. […] For growth hormone, brain tissue was homogenized 1:6 in lysis buffer and was assayed as per manufacturer's protocol (Millipore; Billerica, Mass.). For CRF, brain tissue collected by micro-dissection was homogenized 1:30 w/v in lysis buffer and assayed per manufacturer's protocol (Kamiya Biomedical Company, Seattle, Wash.).
# [5] = system: adult male Long Evans rats; assay: Chronic immobilization stress followed by auditory fear conditioning, ghrelin receptor blockade during stress; settings: for long-term fear memory in stressed rats (stress-enhanced fear): daily systemic injection at start of immobilization stress, 4 h/d 14 d
# Procedure: Drug Preparation. For systemic drug delivery, rats were injected with 1 ml/kg (i.p.) of the appropriate solution. All drugs were solubilized in 0.9% saline (vehicle) such that injection volumes remained constant for each experiment. […] D-Lys3-GHRP-6 (Tocris Biosciences; Minneapolis, Minn.) was diluted to 2.74 ug/ml in vehicle. […] D-Lys3-GHRP-6 was injected within 30 m of the start of immobilization stress or following handling.
# Immobilization Stress. Immobilization stress was administered 4 h per day for 1-14 consecutive days, depending on the experiment. Animals were placed in Decapicone plastic bags (Braintree Scientific; Braintree, Mass.), which were secured at the tail. Stress occurred in a lab room used for no other procedures. All stress sessions were performed between LOAM and 4 PM. Unstressed control rats were handled daily for 30 s. For further parallel control parameters, food was removed from the unstressed rats daily for the same 4 h period in which stressed animals were immobilized and, therefore, without food.
# Pavlovian Fear Conditioning. Fear conditioning experiments were conducted in a modified chamber (MED Associates; St. Albans, Vt.) housed in a sound-attenuated cubicle. The animals were placed in individual chambers and infrared video of each session was recorded. Each experiment used auditory fear conditioning wherein rats received 3-5 tone (2 kHz, 85 dB, 10-16s)-footshock (1-2s, 0.4-0.7 mA) pairings in a unique context (metal shock grid floors, chamber fan on, 0.3% PineSol odor, house and room lights on). Animals were allowed 2-3 m to habituate to the chamber before tone-footshock pairings were given at intervals of 1-4 m. Fear memory was tested 24-72 h later by placing the animals in a novel context (white Plexiglas plastic floors, curved Plexiglas wall inserts, fans off, 1% acetic acid odor, house and room lights off). One to 5 m after placement in the novel context, fear to the tone was assessed either by presenting a continuous tone (2 kHz, 85 dB, 8 minutes) or several discrete tones (15 10-16s tones with 1-4 m ISI). Freezing was measured using commercial software (VideoFreeze, MedAssociates, St. Albans, Vt.).
# Statistics. For each fear memory session, conditional freezing was assessed as a percentage of time spent freezing, a probability estimate that is amenable to analysis with parametric statistics. These probability estimates of freezing, along with other measures, were analyzed using ANOVA. Post hoc comparisons in the form of Fisher's PLSD tests were performed after a significant omnibus F-ratio (p<0.05). […] All data where p>0.10 are identified as not significant (ns).
# To determine whether ghrelin signaling is necessary for stress-related enhancement of fear memory, ghrelin receptor signaling was blocked during repeated stress sessions. […] Twenty-four hours following the final stress or handling session, auditory fear conditioning was administered and fear to the tone was assessed in a subsequent session.
# [6] = system: adult male Long Evans rats; assay: Auditory fear conditioning after repeated intra-BLA infusions of ghrelin receptor agonist; type: in vivo, rat; settings: intra-BLA infusion daily for five days
# Procedure: Cannulae Implants. Rats were anesthetized with a cocktail of 10 mg/kg acepromazine, […], and 100 mg/kg ketamine (1 ml/kg; i.p.). Rats were mounted into a dual arm stereotaxic frame (Kopf Instruments; Tujunga, Calif.). The rats were then bilaterally implanted with 23-gauge stainless steel guide cannulae aimed 1 mm above the lateral amygdala: A/P −2.0, M/L+/−5.3, D/V −5.4, relative to brain surface and bregma (45). The cannulae were secured by the placement of three jeweler screws in the skull and dental acrylic. Dummy cannulae extending 1 mm past the tip of the guide cannulae were placed into the guide cannula after surgery and changed every other day. Rats received 0.03 mg/kg of Buprenex (1 ml/kg; s.c.) as post-operative pain management every 12 h for at least 24 h and up to 3 days. All rats recovered for a minimum of 5 days before experimentation commenced.
# Drug Infusion. For intra-cranial infusions, rats were placed in 5-gallon buckets containing bedding. The dummy cannulae were removed and injectors (30G stainless steel cannulae; extending 1 mm beyond the cannulae end) were inserted. The injectors were attached to Hamilton syringes (10 ul; Hamilton Co., Reno, Nev.) via polyethylene tubing, and the syringes were mounted in a Harvard syringe pump (Harvard Apparatus; Holliston, Mass.). Infusions were given at a rate of 0.1 ul/m for 5 m for a total volume of 0.5 ul/side, with 1 m for diffusion, before the injectors were removed and new dummy cannulae were inserted.
# (§2) Pavlovian Fear Conditioning.
# Fear memory requires plasticity in numerous brain regions but the basolateral complex of the amygdala (BLA) is particularly important for both formation and storage of learned fear.
# [7] = system: adult male Long Evans rats; assay: Elevated plus maze after systemic MK-0677; type: in vivo, rat; settings: 5 d systemic injections, single 8 minute session 24 h after last injection
# Procedure: Rats received a daily systemic injection of MK-0677 (MK: 5d), an agonist of GHSR-1a, or vehicle (VEH: 5d) for five days at the endogenous ghrelin signaling nadir. Spontaneous freezing (a) and locomotion (b) were assessed in a novel context 24 h after the last injection. A separate group was assessed on the elevated plus maze in a single 8 minute session 24 h after the last injection. Total arm entries (c) and open arm time (d) were measured to assess exploratory behavior and innate anxiety, respectively. (e) Animals received Pavlovian fear conditioning 24 h before beginning daily handling injections of MK-0677 (Post FC MK: 5d) or vehicle (Post FC VEH: 5d) for 5d. […] All data are mean±s.e.m.
# Elevated Plus Maze. Rats were tested for anxiety using an elevated plus maze (Hamilton Kinder; Poway, Calif.). The maze had two open arms (51 cm×12 cm each) and was located in a moderately lit room. Open arms consisted of black Plexiglas floors and no walls. The closed arms had black Plexiglas walls 40 cm high. […] Automated software (Motor Monitor 4.14) recorded the second by second movements of the animals while the experimenter made observations in an obscured corner. Each session lasted 8 m and both the observer and the software recorded the latency to exit the first arm and the number of entries into the open and closed arms. Additionally, the software recorded time spent in the each region of the maze. […]
# [8] = system: growth hormone release; settings: dose of 0.5 mg/ml; cited from earlier work
# [9] = system: CRF; assay: Brain CRF levels by ELISA after systemic MK-0677; type: in vivo, rat; settings: 5 d systemic injections, 24 h after final injection
# Procedure: Rats received daily systemic injections of MK-0677 (MK: 5d), a GHSR-1a agonist, or saline (VEH: 5d) for five days at the endogenous ghrelin signaling nadir. (b) One group underwent auditory fear conditioning 24 h following the final injection. Fear acquisition was assessed by monitoring freezing levels. (c) Conditional freezing to the tone was assessed in a novel context 48 h following fear conditioning. A separate group was sacrificed 24 h following the final injection and microdissections of hypothalamus and amygdala performed. Brain CRF levels were measured using ELISA (d) hypothalamus, (e), basolateral complex of the amygdala). * p<0.05, ** p<0.01, ˜p<0.10 in planned comparisons.
# as §1, with “For CRF, brain tissue collected by micro-dissection was homogenized 1:30 w/v in lysis buffer and assayed per manufacturer's protocol (Kamiya Biomedical Company, Seattle, Wash.).” left out
# [10] = system: adult male Long Evans rats; assay: Auditory Pavlovian fear conditioning after systemic ghrelin receptor agonist injections in nonstressed rats; type: in vivo, rat; settings: for fear memory after a single injection: 1 day of injection, conditioning 24 h later; for long-term fear memory (conditional freezing to the tone): conditioning 24 h after last injection, test 48 h later
# Procedure: Subjects. All experiments used adult male Long Evans rats (250-350 g, Taconic, Germantown, N.Y.), housed individually (68-72° F.; 12-h light-dark cycle, 7 AM lights on). Food and water (or 0.9% saline for adrenalectomy experiments) was provided ad libitum. Stressed and unstressed animals were housed in separate cubicles. All procedures were in accordance with the US National Institutes of Health (NIH) Guide for the Care and Use of Laboratory Animals and were approved by the MIT Institutional Animal Care and Use Committee and the Animal Care and Use Review Office of the USAMRMC.
# as §2
# To determine whether increased activation of the ghrelin receptor is sufficient for enhancement of fear memory, experiments were conducted using pharmacological agonism of GHSR-1a in non-stressed animals. […] MK-0677 (MK: 5d) or saline (VEH: 5d) was systemically administered once a day for five consecutive days in nonstressed rats to determine whether repeated ghrelin receptor agonism in the absence of stress is sufficient to increase fear learning and whether HPA hormones may play a role in this effect. […] One subset of animals was administered auditory fear conditioning 24 h after the last injection.
# [11] = systemic injection once a day for 5 days, nonstressed rats
# GHSR1a, sequence (Q92847 whole entry): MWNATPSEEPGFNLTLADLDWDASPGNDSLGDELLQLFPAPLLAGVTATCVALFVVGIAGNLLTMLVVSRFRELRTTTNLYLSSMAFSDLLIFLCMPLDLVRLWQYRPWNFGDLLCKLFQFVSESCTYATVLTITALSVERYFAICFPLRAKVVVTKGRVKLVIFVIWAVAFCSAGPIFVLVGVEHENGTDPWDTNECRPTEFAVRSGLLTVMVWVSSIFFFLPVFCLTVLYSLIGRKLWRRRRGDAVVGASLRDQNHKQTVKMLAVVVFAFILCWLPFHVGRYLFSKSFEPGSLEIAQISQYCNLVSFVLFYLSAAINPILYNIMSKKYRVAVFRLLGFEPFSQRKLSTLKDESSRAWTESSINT
compound,measurement,setting,value
H[dW][dK]W[dF]K-NH2 [D-Lys3-GHRP-6],IC50,[1],0.9 µM
same,Ki,[2],26 to 120 µM
same,crossing of the blood-brain barrier,[3],crosses the blood brain barrier
same,crossing of the blood-brain barrier,[3]; listed as DLys3,crosses the blood-brain barrier
same,stress-induced HPA activation as corticosterone secretion,[4],did not blunt
same,long-term fear memory in stressed rats (stress-enhanced fear),[5]; listed as DLys3,completely reversed stress-enhanced fear
same,long-term fear memory in stressed rats (stress-enhanced fear),[5]; listed as Dlys-3,sufficient to prevent stress-related enhancement of fear memory
same,stress enhancement of fear acquisition,[5]; daily systemic injection during immobilization stress,not seen
same,fear memory in nonstressed controls,[5]; daily systemic injection with daily handling,no effect
"acylated ghrelin: acylated (bioactive) form of the peptide hormone ghrelin, infused into the BLA",long-term fear memory,[6]; listed as bioactive ghrelin,replicated
same,half-life,[3]; ref 29,~30 m
CC(C)(N)C(=O)N[C@H](COCc1ccccc1)C(=O)N1CCC2(CC1)CN(S(C)(=O)=O)c1ccccc12 [MK-0677],innate anxiety (open arm time),[7],not altered
same,freezing during fear conditioning,[6],not altered
same,long-term fear memory,[6],significantly enhanced
same,long-term fear memory,[6]; listed as MK677,sufficient to enhance fear memory
same,growth hormone release,[8],significant and prolonged increases
same,tolerability,[8],well-tolerated
same,crossing of the blood-brain barrier,[3],readily crosses the blood-brain barrier
same,half-life,[3]; ref 30,5 to 6 h
same,half-life,"[3]; refs 47, 48",over six
same,amygdalar CRF level,[9],trend for repeated ghrelin receptor activation to decrease
same,hypothalamic CRF level,[9],no change
same,fear memory after a single injection,[10],trend towards impairment
same,fear memory after a single injection,[10]; listed as MK677,no effect
same,expression of previously acquired auditory fear memory,"[10]; conditioning 24 h before 5 d of injections, test 24 h after last injection",not affected
same,fear memory after 3 days of injections,[10]; daily injections for 3 days,no effect
same,fear memory after a single injection followed by 14 d delay,"[10]; single injection, 14 d in vivarium before conditioning",not sufficient to enhance fear
same,fear acquisition during conditioning (freezing),[10]; [11],did not alter
same,long-term fear memory (conditional freezing to the tone),[10]; [11],significantly enhanced
same,long-term fear memory (conditional freezing to the tone),"[10]; systemic injection once a day for 5 days, nonstressed rats, listed as MK677",increased fear memory
